Measurements: ChEMBL document CHEMBL1629559, “Real-time PCR detection of gyrA and parC mutations in Streptococcus pneumoniae” (2008)
Values after ≈ are worked out from the molar mass of the structure shown.

Legend:
[1] = system: Streptococcus pneumoniae; assay: Antibacterial activity against Streptococcus pneumoniae R6 Tr6 harboring gyrA Ser81Phe mutant gene by agar disk diffusion method; format: functional
[2] = system: Streptococcus pneumoniae; assay: Antibacterial activity against Streptococcus pneumoniae U2A1413 harboring parC Ser79Tyr mutant gene by agar disk diffusion method; format: functional
[3] = system: Streptococcus pneumoniae; assay: Antibacterial activity against Streptococcus pneumoniae R6 by agar disk diffusion method; format: functional
[4] = system: Streptococcus pneumoniae; assay: Antibacterial activity against Streptococcus pneumoniae CP1000 by agar dilution method; format: functional
[5] = system: Streptococcus pneumoniae; assay: Antibacterial activity against Streptococcus pneumoniae U2A1414 harboring gyrA Glu85Lys parC Ser79Phe mutant gene by agar dilution method; format: functional
[6] = system: Streptococcus pneumoniae; assay: Antibacterial activity against Streptococcus pneumoniae U2A1266 harboring gyrA Ser81Cys mutant gene by agar dilution method; format: functional
[7] = system: Streptococcus pneumoniae; assay: Antibacterial activity against Streptococcus pneumoniae U2A1051 harboring gyrA Ser81Tyr mutant gene by agar disk diffusion method; format: functional
[8] = system: Streptococcus pneumoniae; assay: Antibacterial activity against Streptococcus pneumoniae U2A1051 harboring gyrA Ser81Tyr mutant gene by agar dilution method; format: functional
[9] = system: Streptococcus pneumoniae; assay: Antibacterial activity against Streptococcus pneumoniae U2A1411 harboring parC Asp83Gly mutant gene by agar disk diffusion method; format: functional
[10] = system: Streptococcus pneumoniae; assay: Antibacterial activity against Streptococcus pneumoniae U2A1050 harboring gyrA Ser81Phe mutant gene by agar disk diffusion method; format: functional
[11] = system: Streptococcus pneumoniae; assay: Antibacterial activity against Streptococcus pneumoniae R6 Tr10 harboring gyrA Ser81Tyr parC Ser79Tyr mutant gene by agar disk diffusion method; format: functional
[12] = system: Streptococcus pneumoniae; assay: Antibacterial activity against Streptococcus pneumoniae U2A1693 harboring parC Asp83Asn mutant gene by agar disk diffusion method; format: functional
[13] = system: Streptococcus pneumoniae; assay: Antibacterial activity against Streptococcus pneumoniae CP1000 by agar disk diffusion method; format: functional
[14] = system: Streptococcus pneumoniae; assay: Antibacterial activity against Streptococcus pneumoniae U2A1686 harboring gyrA Glu85Lys mutant gene by agar disk diffusion method; format: functional
[15] = system: Streptococcus pneumoniae; assay: Antibacterial activity against Streptococcus pneumoniae R6 by agar dilution method; format: functional
[16] = system: Streptococcus pneumoniae; assay: Antibacterial activity against Streptococcus pneumoniae U2A1411 harboring parC Asp83Gly mutant gene by agar dilution method; format: functional
[17] = system: Streptococcus pneumoniae; assay: Antibacterial activity against Streptococcus pneumoniae U2A1056 harboring gyrA Ser81Tyr parC Asp83His mutant gene by agar dilution method; format: functional
[18] = system: Streptococcus pneumoniae; assay: Antibacterial activity against Streptococcus pneumoniae U2A1266 harboring gyrA Ser81Cys mutant gene by agar disk diffusion method; format: functional
[19] = system: Streptococcus pneumoniae; assay: Antibacterial activity against Streptococcus pneumoniae R6 Tr1 harboring parC Ser79Tyr mutant gene by agar disk diffusion method; format: functional
[20] = system: Streptococcus pneumoniae; assay: Antibacterial activity against Streptococcus pneumoniae U2A1693 harboring parC Asp83Asn mutant gene by agar dilution method; format: functional
[21] = system: Streptococcus pneumoniae; assay: Antibacterial activity against Streptococcus pneumoniae R6 Tr6 harboring gyrA Ser81Phe mutant gene by agar dilution method; format: functional
[22] = system: Streptococcus pneumoniae; assay: Antibacterial activity against Streptococcus pneumoniae U2A1050 harboring gyrA Ser81Phe mutant gene by agar dilution method; format: functional
[23] = system: Streptococcus pneumoniae; assay: Antibacterial activity against Streptococcus pneumoniae U2A1681 harboring parC Ser79Tyr Asp83Ala mutant gene by agar dilution method; format: functional
[24] = system: Streptococcus pneumoniae; assay: Antibacterial activity against Streptococcus pneumoniae CIP104485 by agar dilution method; format: functional; conditions: CIP1044
[25] = system: Streptococcus pneumoniae; assay: Antibacterial activity against Streptococcus pneumoniae R6 Tr1 harboring parC Ser79Tyr mutant gene by agar dilution method; format: functional
[26] = system: Streptococcus pneumoniae; assay: Antibacterial activity against Streptococcus pneumoniae U2A1686 harboring gyrA Glu85Lys mutant gene by agar dilution method; format: functional
[27] = system: Streptococcus pneumoniae; assay: Antibacterial activity against Streptococcus pneumoniae U2A1413 harboring parC Ser79Tyr mutant gene by agar dilution method; format: functional
[28] = system: Streptococcus pneumoniae; assay: Antibacterial activity against Streptococcus pneumoniae U2A1053 harboring parC Ser79Phe mutant gene by agar disk diffusion method; format: functional
[29] = system: Streptococcus pneumoniae; assay: Antibacterial activity against Streptococcus pneumoniae U2A1414 harboring gyrA Glu85Lys parC Ser79Phe mutant gene by agar disk diffusion method; format: functional
[30] = system: Streptococcus pneumoniae; assay: Antibacterial activity against Streptococcus pneumoniae U2A1053 harboring parC Ser79Phe mutant gene by agar dilution method; format: functional
[31] = system: Streptococcus pneumoniae; assay: Antibacterial activity against Streptococcus pneumoniae CIP104485 by agar disk diffusion method; format: functional, CIP1044
[32] = system: Streptococcus pneumoniae; assay: Antibacterial activity against Streptococcus pneumoniae U2A1060 harboring gyrA Ser81Phe parC Asp83His mutant gene by agar disk diffusion method; format: functional
[33] = system: Streptococcus pneumoniae; assay: Antibacterial activity against Streptococcus pneumoniae U2A1681 harboring parC Ser79Tyr Asp83Ala mutant gene by agar disk diffusion method; format: functional

`COc1c(N2C[C@@H]3CCCN[C@@H]3C2)c(F)cc2c(=O)c(C(=O)O)cn(C3CC3)c12` [MOXIFLOXACIN] was tested. Which “diameter of the inhibition zone (DIZ)” value [1] did it give?
Its value is 24 mm.

And the “diameter of the inhibition zone (DIZ)” value [2]?
Its value is 31 mm.

And the “diameter of the inhibition zone (DIZ)” value [3]?
The value was 26 mm.

And the MIC [4]?
Its MIC is 0.25 µg/mL (≈ 0.623 µM).

And the MIC [5]?
Its MIC is 8 µg/mL (≈ 19.9 µM).

And the MIC [6]?
The MIC was 0.5 µg/mL (≈ 1.25 µM).

And the “diameter of the inhibition zone (DIZ)” value [7]?
The value was 25 mm.

And the MIC [8]?
The MIC was 1 µg/mL (≈ 2.49 µM).

And the “diameter of the inhibition zone (DIZ)” value [9]?
The value was 25 mm.

What about the “diameter of the inhibition zone (DIZ)” value [10] of the same compound?
The value was 25 mm.

What about the “diameter of the inhibition zone (DIZ)” value [11] of the same compound?
The value was 18 mm.

What about the “diameter of the inhibition zone (DIZ)” value [12] of the same compound?
Its value is 27 mm.

And the “diameter of the inhibition zone (DIZ)” value [13]?
Its value is 28 mm.

What about the “diameter of the inhibition zone (DIZ)” value [14] of the same compound?
The value was 27 mm.

And the MIC [15]?
The MIC was 0.125 µg/mL (≈ 0.311 µM).

And the MIC [16]?
Its MIC is 0.5 µg/mL (≈ 1.25 µM).

What about the MIC [17] of the same compound?
The MIC was 2 µg/mL (≈ 4.98 µM).

What about the “diameter of the inhibition zone (DIZ)” value [18] of the same compound?
Its value is 26 mm.

And the “diameter of the inhibition zone (DIZ)” value [19]?
The value was 28 mm.

What about the MIC [20] of the same compound?
The MIC was 0.5 µg/mL (≈ 1.25 µM).

What about the MIC [21] of the same compound?
The MIC was 0.5 µg/mL (≈ 1.25 µM).

And the MIC [22]?
Its MIC is 1 µg/mL (≈ 2.49 µM).

What about the MIC [23] of the same compound?
Its MIC is 8 µg/mL (≈ 19.9 µM).

And the MIC [24]?
Its MIC is 0.125 µg/mL (≈ 0.311 µM).

What about the MIC [25] of the same compound?
Its MIC is 0.5 µg/mL (≈ 1.25 µM).

What about the MIC [26] of the same compound?
The MIC was 0.5 µg/mL (≈ 1.25 µM).

And the MIC [27]?
Its MIC is 0.25 µg/mL (≈ 0.623 µM).

What about the “diameter of the inhibition zone (DIZ)” value [28] of the same compound?
The value was 26 mm.

What about the “diameter of the inhibition zone (DIZ)” value [29] of the same compound?
The value was 17 mm.

What about the MIC [30] of the same compound?
The MIC was 0.25 µg/mL (≈ 0.623 µM).

What about the “diameter of the inhibition zone (DIZ)” value [31] of the same compound?
The value was 26 mm.

And the “diameter of the inhibition zone (DIZ)” value [32]?
The value was 18 mm.

And the “diameter of the inhibition zone (DIZ)” value [33]?
Its value is 12 mm.
